This note sets out measurements from patent US11970494B2, “6-heteroaryloxy benzimidazoles and azabenzimidazoles as JAK2 inhibitors” (Ajax Therapeutics, Inc., priority 2021, dated 2024).

Molecules are shown by their SMILES.

The assay deals with T1, JAK2 (JH1 domain-catalytic, Y1007F,Y1008F) kinase (Homo sapiens, UniProt O60674, Y1007F/Y1008F).
T1 construct: made in house; host or cells: transiently transfected HEK293 cells
T1 sequence (O60674 849-1124 Y1007F/Y1008F limits assumed): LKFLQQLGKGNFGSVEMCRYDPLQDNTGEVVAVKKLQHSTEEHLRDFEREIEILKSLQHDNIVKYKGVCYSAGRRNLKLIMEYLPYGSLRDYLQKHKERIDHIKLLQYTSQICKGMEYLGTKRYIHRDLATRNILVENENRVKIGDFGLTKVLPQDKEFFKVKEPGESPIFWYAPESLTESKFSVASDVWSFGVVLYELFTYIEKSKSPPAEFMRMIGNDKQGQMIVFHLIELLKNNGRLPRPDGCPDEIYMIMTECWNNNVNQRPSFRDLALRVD
The assay can be described thus: JAK2 Binding Assay (JAK2 JH1 Domain Binding Assay). The note with it: JAK2 JH1 domain binding, qPCR detection; read-out: JAK2 Kd.
As for `CC(=O)Nc1cc(Oc2cnc3nc(Nc4cc5n(n4)CCCC5(F)F)n(C)c3c2Cl)ccn1` [Example I-92, N-(4-((7-chloro-2-((4,4-difluoro-4,5,6,7-tetrahydropyrazolo[1,5-a]pyridin-2-yl)amino)-1-methyl-1H-imidazo[4,5-b]pyridin-6-yl)oxy)pyridin-2-yl)acetamide], the Kd is less than 10 nM.

`CC(=O)Nc1cc(Oc2cnc3nc(Nc4cc5n(n4)CCCC5(F)F)n(C)c3c2C#N)ccn1` [Example I-93, N-(4-((7-cyano-2-((4,4-difluoro-4,5,6,7-tetrahydropyrazolo[1,5-a]pyridin-2-yl)amino)-1-methyl-1H-imidazo[4,5-b]pyridin-6-yl)oxy)pyridin-2-yl)acetamide]: the Kd is less than 10 nM.

Consider `CC(=O)Nc1cc(Oc2cnc3nc(Nc4ccc(CN(C)C)c(C(F)(F)F)c4)n(C)c3c2Cl)ccn1` [Example I-94, N-(4-((7-chloro-2-((4-((dimethylamino)methyl)-3-(trifluoromethyl)phenyl)amino)-1-methyl-1H-imidazo[4,5-b]pyridin-6-yl)oxy)pyridin-2-yl)acetamide], for which the Kd is less than 10 nM.

Regarding `CC(=O)Nc1cc(Oc2cnc3nc(Nc4cc(OC[C@@H]5CCCN5C)cc(C(F)(F)F)c4)n(C)c3c2Cl)ccn1` [Example I-96, (S)-N-(4-((7-chloro-1-methyl-2-((3-((1-methylpyrrolidin-2-yl)methoxy)-5-(trifluoromethyl)phenyl)amino)-1H-imidazo[4,5-b]pyridin-6-yl)oxy)pyridin-2-yl)acetamide], the Kd is less than 10 nM.

Consider `CC(=O)Nc1cc(Oc2cnc3nc(Nc4cc(OC[C@H]5CCCN5C)cc(C(F)(F)F)c4)n(C)c3c2Cl)ccn1` [Example I-97, (R)-N-(4-((7-chloro-1-methyl-2-((3-((1-methylpyrrolidin-2-yl)methoxy)-5-(trifluoromethyl)phenyl)amino)-1H-imidazo[4,5-b]pyridin-6-yl)oxy)pyridin-2-yl)acetamide], for which the Kd was less than 10 nM.

`CC(=O)Nc1cc(Oc2cnc3nc(Nc4cc(C(F)(F)F)n(C5CC6(COC6)C5)n4)n(C)c3c2Cl)ccn1` [Example I-98, N-(4-((2-((1-(2-oxaspiro[3.3]heptan-6-yl)-5-(trifluoromethyl)-1H-pyrazol-3-yl)amino)-7-chloro-1-methyl-1H-imidazo[4,5-b]pyridin-6-yl)oxy)pyridin-2-yl)acetamide]: the Kd is less than 10 nM.

Turning to `CC(=O)Nc1cc(Oc2cnc3nc(Nc4cc(O[C@H]5CCN(C)C5)cc(C(F)(F)F)c4)n(C)c3c2Cl)ccn1` [Example I-99, (S)-N-(4-((7-chloro-1-methyl-2-((3-((1-methylpyrrolidin-3-yl)oxy)-5-(trifluoromethyl)phenyl)amino)-1H-imidazo[4,5-b]pyridin-6-yl)oxy)pyridin-2-yl)acetamide], the Kd is less than 10 nM.

As to `CC(=O)Nc1cc(Oc2cnc3nc(Nc4cc(O[C@@H]5CCN(C)C5)cc(C(F)(F)F)c4)n(C)c3c2Cl)ccn1` [Example I-100, (R)-N-(4-((7-chloro-1-methyl-2-((3-((1-methylpyrrolidin-3-yl)oxy)(trifluoromethyl)phenyl)amino)-1H-imidazo[4,5-b]pyridin-6-yl)oxy)pyridin-2-yl)acetamide], the equilibrium dissociation constant (Kd) was less than 10 nM.

For `CC(=O)Nc1cc(Oc2cnc3nc(Nc4cc(COC5CN(C)C5)cc(C(F)(F)F)c4)n(C)c3c2Cl)ccn1` [Example I-101, N-(4-((7-chloro-1-methyl-2-((3-(((1-methylazetidin-3-yl)oxy)methyl)-5-(trifluoromethyl)phenyl)amino)-1H-imidazo[4,5-b]pyridin-6-yl)oxy)pyridin-2-yl)acetamide], the Kd was less than 10 nM.

Regarding `CC(=O)Nc1cc(Oc2cnc3nc(Nc4cc(OC5CN(C)C5)cc(C(F)(F)F)c4)n(C)c3c2Cl)ccn1` [Example I-103, N-(4-((7-chloro-1-methyl-2-((3-((1-methylazetidin-3-yl)oxy)-5-(trifluoromethyl)phenyl)amino)-1H-imidazo[4,5-b]pyridin-6-yl)oxy)pyridin-2-yl)acetamide], the Kd was less than 10 nM.

As to `CC(=O)Nc1cc(Oc2cnc3nc(Nc4cc(C(C)(C)C(F)(F)F)on4)n(C)c3c2C#N)ccn1` [Example I-104, N-(4-((7-cyano-1-methyl-2-((5-(1,1,1-trifluoro-2-methylpropan-2-yl)isoxazol-3-yl)amino)-1H-imidazo[4,5-b]pyridin-6-yl)oxy)pyridin-2-yl)acetamide], the Kd is greater than 5000 nM.

Take `CC(=O)Nc1cc(Oc2cnc3nc(Nc4ccc(CN(C)C)c(C(F)(F)F)c4)n(C)c3c2C#N)ccn1` [Example I-105, N-(4-((7-cyano-2-((4-((dimethylamino)methyl)-3-(trifluoromethyl)phenyl)amino)-1-methyl-1H-imidazo[4,5-b]pyridin-6-yl)oxy)pyridin-2-yl)acetamide]: the Kd is less than 10 nM.

For the molecule `CC(=O)Nc1cc(Oc2cnc3nc(Nc4cc(C(F)(F)F)n(C5CC6(COC6)C5)n4)n(C)c3c2C#N)ccn1` [Example I-106, N-(4-((2-((1-(2-oxaspiro[3.3]heptan-6-yl)-5-(trifluoromethyl)-1H-pyrazol-3-yl)amino)-7-cyano-1-methyl-1H-imidazo[4,5-b]pyridin-6-yl)oxy)pyridin-2-yl)acetamide], the Kd was 10 to 50 nM.

`COCC(=O)Nc1cc(Oc2cnc3nc(Nc4cc(C(F)(F)F)n(C5CC6(CCOCC6)C5)n4)n(C)c3c2Cl)ccn1` [Example I-107, N-(4-((2-((1-(7-oxaspiro[3.5]nonan-2-yl)-5-(trifluoromethyl)-1H-pyrazol-3-yl)amino)-7-chloro-1-methyl-1H-imidazo[4,5-b]pyridin-6-yl)oxy)pyridin-2-yl)-2-methoxyacetamide]: the Kd was in the range of 10 to 50 nM.

For the molecule `COCC(=O)Nc1cc(Oc2cnc3nc(Nc4cc(C(F)(F)F)n(C5CC6(CCOCC6)C5)n4)n(C)c3c2C#N)ccn1` [Example I-110, N-(4-((2-((1-(7-oxaspiro[3.5]nonan-2-yl)-5-(trifluoromethyl)-1H-pyrazol-3-yl)amino)-7-cyano-1-methyl-1H-imidazo[4,5-b]pyridin-6-yl)oxy)pyridin-2-yl)-2-methoxyacetamide], the Kd is less than 10 nM.

Take `CC(=O)Nc1cc(Oc2cnc3nc(Nc4cc(N5CCCC5)nc(C(F)(F)F)c4)n(C)c3c2Cl)ccn1` [Example I-111, N-(4-((7-chloro-1-methyl-2-((2-(pyrrolidin-1-yl)-6-(trifluoromethyl)pyridin-4-yl)amino)-1H-imidazo[4,5-b]pyridin-6-yl)oxy)pyridin-2-yl)acetamide]: the dissociation constant Kd is 50 to 1000 nM.

Turning to `CC(=O)Nc1cc(Oc2cnc3nc(Nc4cc5n(n4)CCOC5(C)C)n(C)c3c2C#N)ccn1` [Example I-112, N-(4-((7-cyano-2-((4,4-dimethyl-6,7-dihydro-4H-pyrazolo[5,1-c][1,4]oxazin-2-yl)amino)-1-methyl-1H-imidazo[4,5-b]pyridin-6-yl)oxy)pyridin-2-yl)acetamide], the Kd is less than 10 nM.

In the case of `CC(=O)Nc1cc(Oc2cnc3nc(Nc4cc5n(n4)CCC54CCC4)n(C)c3c2C#N)ccn1` [Example I-113, N-(4-((7-cyano-2-((5′,6′-dihydrospiro[cyclobutane-1,4′-pyrrolo[1,2-b]pyrazol]-2′-yl)amino)-1-methyl-1H-imidazo[4,5-b]pyridin-6-yl)oxy)pyridin-2-yl)acetamide], the Kd was less than 10 nM.

Consider `CC(=O)Nc1cc(Oc2cnc3nc(Nc4cc5n(n4)CCN5C(C)(C)C)n(C)c3c2C#N)ccn1` [Example I-115, N-(4-((2-((1-(tert-butyl)-2,3-dihydro-1H-imidazo[1,2-b]pyrazol-6-yl)amino)-7-cyano-1-methyl-1H-imidazo[4,5-b]pyridin-6-yl)oxy)pyridin-2-yl)acetamide], for which the Kd was less than 10 nM.

Consider `CC(=O)Nc1cc(Oc2cnc3nc(Nc4cc5n(n4)CCN(C)C54CC4)n(C)c3c2C#N)ccn1` [Example I-119], for which the dissociation constant (Kd) lay in the range of 10 to 50 nM.

With `Cn1c(Nc2cc3n(n2)CCC32CCC2)nc2ncc(Oc3ccnc(NC(=O)O[C@H]4CCOC4)c3)c(C#N)c21` [Example I-120, (S)-tetrahydrofuran-3-yl(4-((7-cyano-2-((5′,6′-dihydrospiro[cyclobutane-1,4′-pyrrolo[1,2-b]pyrazol]-2′-yl)amino)-1-methyl-1H-imidazo[4,5-b]pyridin-6-yl)oxy)pyridin-2-yl)carbamate], the Kd is less than 10 nM.

For the molecule `Cn1c(Nc2cc3n(n2)CCC32CCC2)nc2ncc(Oc3ccnc(NC(=O)O[C@@H]4CCOC4)c3)c(C#N)c21` [Example I-121, (R)-tetrahydrofuran-3-yl (4-((7-cyano-2-((5′,6′-dihydrospiro[cyclobutane-1,4′-pyrrolo[1,2-b]pyrazol]-2′-yl)amino)-1-methyl-1H-imidazo[4,5-b]pyridin-6-yl)oxy)pyridin-2-yl)carbamate], the Kd is less than 10 nM.

Take `Cn1cc(C(F)(F)F)cc(Nc2nc3ncc(Oc4ccnc(NC(=O)NC5COC5)c4)c(C#N)c3n2C)c1=O` [Example I-123, 1-(4-((7-cyano-1-methyl-2-((1-methyl-2-oxo-5-(trifluoromethyl)-1,2-dihydropyridin-3-yl)amino)-1H-imidazo[4,5-b]pyridin-6-yl)oxy)pyridin-2-yl)-3-(oxetan-3-yl)urea]: the Kd was less than 10 nM.
